Laboratory results as given in PMC5154195, “Ester-Modified Cyclometalated Iridium(III) Complexes as Mitochondria-Targeting Anticancer Agents” (Scientific Reports, 2016).

What was measured:
[1] = tested on: HeLa (human cervical cancer) cells; assay: MTT cell viability assay, HeLa; format: cell-based; settings: 44 h + 4 h MTT, read-out: IC50 (50% inhibition of cell viability)
Description: (§1) HeLa, A549, A549R, MCF-7 and HepG2 cells were obtained from Experimental Animal Centre of Sun Yat-Sen University (Guangzhou, China). Cells were cultured in DMEM (Dulbecco’s modified Eagle’s medium, Gibco BRL) or RPMI 1640 (Roswell Park Memorial Institute 1640, Gibco BRL) medium, containing 10% FBS (fetal bovine serum, Gibco BRL), 100 μg/mL streptomycin and 100 U/mL penicillin (Gibco BRL).
(§2) The cytotoxicity of the tested complexes towards different cell lines was determined by MTT assay. Cells were cultured in 96-well plates for 24 h. Cells were incubated with a series of concentrations of complexes for another 44 h. 20 μL MTT solution (5 mg/mL) was added into each well and incubated for another 4 h. Then culture media was removed and 150 μL DMSO was added into each well. The plate was shaken for 10 min. The absorbance at 595 nm was measured by a microplate reader.

[2] = tested on: A549 (human lung adenocarcinoma epithelial) cells; assay: MTT cell viability assay, A549; format: cell-based; settings: 44 h + 4 h MTT, read-out: IC50 (50% inhibition of cell viability)
Description: as §1, §2

[3] = tested on: A549R (cisplatin-resistant A549) cells; assay: MTT cell viability assay, A549R; format: cell-based, human; settings: 44 h + 4 h MTT, read-out: IC50 (50% inhibition of cell viability)
Description: as §1, §2

[4] = tested on: HepG2 (human hepatocellular liver carcinoma) cells; assay: MTT cell viability assay, HepG2; format: cell-based; settings: 44 h + 4 h MTT, read-out: IC50 (50% inhibition of cell viability)
Description: as §1, §2

[5] = tested on: MCF-7 (human breast adenocarcinoma) cells; assay: MTT cell viability assay, MCF-7; format: cell-based; settings: MCF-7, MTT, 44 h + 4 h MTT; read-out: IC50 (50% inhibition of cell viability)
Description: as §1, §2

[6] = Lipophilicity (log Po/w), shake-flask method with ICP-MS; format: physicochemical; settings: n-octanol/PBS
Description: According to the Lipinski’s rule, appropriate hydrophilicity and lipophilicity are of vital importance for drugs. Excessive hydrophilicity decreases penetration ability of a drug to cross phospholipid layer membrane. On the contrary, high lipophilicity means poor water solubility, which hinders biomedical applications. The lipophilicity, as represented by the log Po/w values, was determined by the shake-flask method according to a literature procedure. The log Po/w values of these Ir(III) complexes fall between −0.81 and 2.59 (Fig. 3A).
The lipophilicity (log Po/w) was determined by the flask-shaking method and analyzed by ICP-MS. Equal amounts of PBS and n-octanol were shaken in the oscillator for 24 h. The mixture was separated to obtain oil and water phases. The mixtures were centrifuged at 3000 × g for 5 min. Equal volumes of n-octanol and PBS were added to the supernatant. The mixtures were shaken for another 24 h, and then centrifuged at 3000 × g for 5 min. The oil and water phases were separated carefully and dried under vacuum. The dried sample was dissolved by HNO3 (65%, 300 μL) and diluted to a final volume of 10 mL with Milli-Q water containing 10 ppb In. The Ir(III) concentration (Co or Cw) was measured by ICP-MS using In as the internal reference. The Po/w value corresponds to Co/Cw.

A549 cells [7] = assay: Cellular uptake efficacy by ICP-MS; format: cell-based, human; settings: 20 μM, 1 h
Description: It has been reported that cellular uptake efficacy of a compound is affected by many factors, such as lipophilicity, polarization and surface area[32]. As iridium is an exogenous element, its cellular uptake level can be quantitatively recorded by ICP-MS (inductively coupled plasma-mass spectrometry)[15]. A549 (human lung adenocarcinoma epithelial) cells were incubated with Ir(III) complexes (20 μM) for 1 h and analysed. Cell penetration capability of these complexes is correlated with the length of ester group and lipophilicity (Fig. 3B).
A549 cells were cultured in 60 mm dishes and incubated for 24 h. The medium was removed and replaced with medium-DMSO (99:1, v/v) containing Ir(III) complexes (20 μM). After 1 h incubation, cells were trypsined and collected in PBS. After counted by hemocytometer, cells were digested with HNO3 (65%, 300 μL) at room temperature for 24 h. The solution was diluted to a final volume of 10 mL with Milli-Q water containing 10 ppb In. The iridium content was measured by ICP-MS using In as the internal reference.

[8] = tested on: porcine liver esterase (PLE); assay: Hydrolysis by PLE in vitro (ESI-MS); format: in vitro ADME; settings: 20 μM, 0.6 units PLE, Tris-HCl 10 mM pH 7.4, 2 h
Description: Ester-modified compounds have been used as prodrugs widely. They can be hydrolysed by a variety of esterases selectively or non-selectively, to release active pharmacophores. Herein, porcine liver esterase (PLE) was used as a model to investigate the hydrolytic process of the ester bonds in Ir(III) complexes. The hydrolysis of ten Ir(III) complexes by PLE were detected by ESI-MS (Supplementary Fig. S14)[28]. Equal amounts of Ir(III) complexes (20 μM, 100 μL) were incubated with PLE (0.6 units) in Tris-HCl solution (10 mM, pH 7.4) for 2 h. […] Other complexes with ester substituents show peaks assigned to intact complexes as well as peaks corresponding to hydrolytic products.
Ir(III) complexes (20 μM) were dissolved in freshly prepared Tris-HCl (10 mM, pH 7.4) buffer. Each sample contained 100 μL Ir(III) solution and 0.6 units PLE. After the samples were incubated at 298 K for 2 h, 400 μL acetone (253 K) was added into each sample to quench the enzymatic hydrolysis. Then the samples were centrifuged at 15000 × g for 10 min. The supernatant was collected and analyzed by ESI-MS.

[9] = tested on: all the cell lines tested (A549, A549R, HeLa, HepG2, MCF-7); assay: Cytotoxicity across the cell line panel (MTT); format: cell-based, human
Description: The cytotoxicity was evaluated in A549, A549R (cisplatin-resistant A549), HeLa (human cervical cancer), HepG2 (human hepatocellular liver carcinoma) and MCF-7 (human breast adenocarcinoma) cells. Cisplatin was also tested as a positive control. Generally, the anti-proliferative efficacy of Ir(III) complexes is in the following order: 4a ≈ 4b > 5a ≈ 5b > 3b > 3a > 2b > 2a > 1a ≈ 1b, which corresponds to their lipophilicity and cellular uptake efficacy (Table 1). […] Complexes with longer ester substitutions (4a, 5a, 4b and 5b) show much higher cytotoxicity than the other complexes. […] For complexes 1a and 1b, converting the carboxyl acid groups into ester groups can facilitate cellular uptake and improve their anti-proliferative effects. As carboxyl groups are usually deprotonated at physiological pH, the phenomena may be partially attributed to the alteration of molecular charge from neutral/negative to positive under physiological conditions.
as §2, with “The plate was shaken for 10 min.” left out

A549 cells [10] = assay: Inhibition of autophagy by 3-MA, MTT cell viability; format: cell-based, human; settings: A549, 3-MA pre-treatment 1 h, 24 h
Description: Autophagy is a complicated biological process, which can play either pro-survival or pro-death roles in anticancer therapy. 3-methyladenine (3-MA), a specific class III PI3K inhibitor that can block autophagosome formation, was used to investigate the relationship between autophagy and anti-proliferative activities of 4a and 4b[51]. The anti-proliferative effects are diminished by pre-treatment of A549 cells with 3-MA (5 mM) for 1 h (Fig. 8F). Cell viabilities increase by approximately 1.09−fold and 1.13−fold for 4a (2 μM, 24 h) and 4b (2 μM, 24 h), respectively.
Cells were cultured in a 96-well plate and grown to confluence. Cells were pre-treated with or without 3-MA (5 mM) for 1 h, then incubated with the complexes at the indicated concentrations for 24 h. Cell viability was measured by MTT assay.

IC50 [1] [µM]	IC50 [2] [µM]	IC50 [3] [µM]	IC50 [4] [µM]	IC50 [5] [µM]	Lipophilicity (log Po/w) [6]	cellular uptake level / penetration ability (A549 cells [7])	hydrolysis of ester bonds by PLE (ESI-MS peaks) [8]	SMILES	cytotoxicity against all the cell lines tested [9]	effect of 3-MA pre-treatment on induced cell death (A549 cells [10])
> 100	> 100	> 100	> 100	> 100	-0.49	lowest penetration ability	remain unchanged	O=C([O-])c1cc[n+]2c(c1)-c1cc(C(=O)O)cc[n+]1[Ir-3]213([c]2cc(F)cc(F)c2-c2cccc[n+]21)[c]1cc(F)cc(F)c1-c1cccc[n+]13 [Complex 1b, Ir(dfppy)2(Hdcbpy)]	inactive	–
> 100	> 100	> 100	> 100	> 100	-0.81	lowest penetration ability	remain unchanged	O=C([O-])c1cc[n+]2c(c1)-c1cc(C(=O)O)cc[n+]1[Ir-3]213([c]2ccccc2-c2cccc[n+]21)[c]1ccccc1-c1cccc[n+]13 [Complex 1a, Ir(ppy)2(Hdcbpy)]	inactive	–

SMILES	IC50 [1] [µM]	IC50 [2] [µM]	IC50 [3] [µM]	IC50 [4] [µM]	IC50 [5] [µM]	Lipophilicity (log Po/w) [6]	cellular uptake level / penetration ability (A549 cells [7])	hydrolysis of ester bonds by PLE (ESI-MS peaks) [8]	cytotoxicity against all the cell lines tested [9]	effect of 3-MA pre-treatment on induced cell death (A549 cells [10])
N.N.[Cl][Pt][Cl] [cisplatin, reference compound]	25.1 ± 2.2	23.7 ± 1	79.4 ± 6.1	15.8 ± 1.2	16.8 ± 1.5	–	–	–	–	enhance cell death
